Measured values as given in patent publication US11197885B2, “Collagen enhancing agent made from low acyl gellan gum, methods of making and methods of using the same” (The University of Toledo, priority 2015, dated 2021).

What was measured:
[1] = system: pCREB in mouse cortical neurons; experiment: nuclear pCREB in midi-GAGR-treated mouse cortical neurons pre-treated with signaling inhibitors; type: cell-based; conditions: inhibitor 6 h (SU5402 4 μM, staurosporine 3 nM, U0126 10 μM, LY294002 20 μM, KN-62 10 μM, PF-573228 1 μM), then 1 μM midi-GAGR 48 h
Method: (§1) To analyze the effect of polysaccharides on neurite outgrowth, primary mouse cortical neurons were treated with vehicle (H2O) or 1 μM of dextran, alginate, or midi-GAGR, 0.01 μM of HA-GAGR, or 0.1 μM of LA-GAGR for 2 days prior to immunocytochemistry using anti-α-tubulin antibody and secondary Alexa488nm antibody. An etched grid coverslip containing 200 numbered boxes was used to select neurons objectively for image acquisition and analysis. A total of 24 boxes were randomly selected per treatment group. All the neurons having total neurite length longer than 4 times of the diameter of neuron cell body were chosen for image analysis. The total length of the neurites of each neuron was measured using Metamorph and used to calculate average total neurite length. To examine the effect of polysaccharides on the phosphorylation (activation) of nuclear CREB, neurons were stained with anti-pCREB antibody (Abcam & Santa Cruz biotechnologies, 2nd antibody with Alexa568nm), anti-α-tubulin antibody (Sigma, 2nd antibody with Alexa488nm), and DAPI (Sigma) after two-day incubation with vehicle (H2O) or 1 μM of dextran, alginate, or midi-GAGR, 0.01 μM of HA-GAGR, or 0.1 μM of LA-GAGR. […] The images of neurons on coverslips were taken by confocal microscopy at the same gain (850), offset (−0.01), and exposure time (2 sec). The intensity of the staining of nuclear pCREB was measured using Metamorph and used to calculate average intensity. In addition, the phosphorylation of CREB in the cytosols of mouse cortical neurons treated with polysaccharides were detected by immunoblotting. Primary mouse neurons were dissected from 16 mouse embryos (E17) and plated in the wells of 6-well plates (1×10^6 cells/well), differentiated for 6 days, and treated with polysaccharides for 48 h. Then, neurons were harvested and lysed in 1% Igepal CA-630 (Sigma)-containing PMEE buffer plus protease and phosphatase inhibitor cocktails (Sigma) for protein extraction. Extracted proteins were separated in 4-12% NuPAGE Bis-Tris protein gels (Life Technologies) and transferred to nitrocellulose membrane (GE Healthcare Life Science, Pittsburgh, Pa.) using a semidry blotter (Hoefer, Inc., San Francisco, Calif.). The protein bands on blots recognized by anti-pCREB (Santa Cruz Biotechnologies) and anti-CREB antibodies were detected on Amersham Hyperfilm™ ECL films (GE Healthcare Life Science) using SuperSignal® West Pico Chemiluminescent Substrate (Thermo Scientific).
Pharmacological agents were used to inhibit signaling molecules downstream of FGFR1 that mediate CREB phosphorylation. […] PF-573228 (PF, 1 μM) that inhibits FAK which sits at the bottleneck of the signaling pathway downstream of NCAM180 was also included to examine whether NCAM180 is involved in midi-GAGR-mediated CREB phosphorylation or not. […]

[2] = system: rat cortical neurons (E17, DIV6); experiment: FGFR1 dependence of neuroprotection against 4HNE, LIVE/DEAD assay; type: cell-based
Text: The protective effect of polysaccharides on primary cortical neurons from 4HNE, H2O2, and Aβ42 peptide (Sigma) was examined using LIVE/DEAD® Viability/Cytotoxicity Assay Kit (Life Technologies). Female pregnant mice (BALB/C, E17, Charles River Laboratories International, Inc.) or female pregnant SD rats (E17, bred in house) were anesthetized and dissected to obtain 8-9 embryos per animal. Cortical neurons were isolated from embryonic brains and differentiated on poly-L-lysine-coated coverslips in B27/neurobasal medium. For drug treatment before free radical treatment, mouse cortical neurons (5 days in vitro [DIV5]) were treated with vehicle (H2O), 1 μM of 5 kD dextran (Sigma), alginate (Sigma), midi-GAGR, 0.01 μM of high acyl gellan gum (HA-GAGR, CPKelco Co.), or 0.1 μM of LA-GAGR for 24 h and then treated with 10 μM 4HNE or 50 μM H2O2 for 24 h, or 2 μM Aβ42 peptide for 48 h prior to viability/cytotoxicity assay. For drug co-treatment with free radicals, rat cortical neurons (DIV5) were treated with 1 μM of dextran, alginate, or midi-GAGR, 0.01 μM of HA-GAGR, or 0.1 μM of LA-GAGR along with either 10 μM 4HNE (24 h) or 2 μM Aβ42 peptide (48 h). […]

[3] = ABTS Antioxidant Assay Kit; type: biochemical; conditions: 10 μM
Method: The antioxidant capacity of midi-GAGR was measured using ABTS Antioxidant Assay Kit (Zenbio Co.). […] This was slightly stronger than antioxidant capacity of LA-GAGR (10 μM LA-GAGR=15.4 μM trolox) (Table 2).

[4] = system: mouse cortical neurons (E17, DIV5); experiment: LIVE/DEAD assay, pre-treatment of mouse cortical neurons before 4HNE, H2O2 or Aβ42; type: cell-based
Text: The protective effect of polysaccharides on primary cortical neurons from 4HNE, H2O2, and Aβ42 peptide (Sigma) was examined using LIVE/DEAD® Viability/Cytotoxicity Assay Kit (Life Technologies). Female pregnant mice (BALB/C, E17, Charles River Laboratories International, Inc.) or female pregnant SD rats (E17, bred in house) were anesthetized and dissected to obtain 8-9 embryos per animal. Cortical neurons were isolated from embryonic brains and differentiated on poly-L-lysine-coated coverslips in B27/neurobasal medium. For drug treatment before free radical treatment, mouse cortical neurons (5 days in vitro [DIV5]) were treated with vehicle (H2O), 1 μM of 5 kD dextran (Sigma), alginate (Sigma), midi-GAGR, 0.01 μM of high acyl gellan gum (HA-GAGR, CPKelco Co.), or 0.1 μM of LA-GAGR for 24 h and then treated with 10 μM 4HNE or 50 μM H2O2 for 24 h, or 2 μM Aβ42 peptide for 48 h prior to viability/cytotoxicity assay. For drug co-treatment with free radicals, rat cortical neurons (DIV5) were treated with 1 μM of dextran, alginate, or midi-GAGR, 0.01 μM of HA-GAGR, or 0.1 μM of LA-GAGR along with either 10 μM 4HNE (24 h) or 2 μM Aβ42 peptide (48 h). To examine the extent to which midi-GAGR-mediated neuroprotection depends on FGFR1, rat cortical neurons (E17, DIV5) were pre-treated with 4 μM SU5402 (Sigma) for 6 h and treated with 10 μM 4HNE and either vehicle or 1 μM midi-GAGR for 24 h prior to cell viability/cytotoxicity assay. As controls, neurons were treated with SU5402, midi-GAGR, 4HNE, 4HNE plus midi-GAGR, or SU5402 plus midi-GAGR.
For cell viability/cytotoxicity measurement, neurons on glass coverslips were incubated in 1×PBS containing 2 μM calcein AM (live cells: green) and 4 μM ethidium homodimer-1 (dead cells: red) for 10 min at 37° C. Immediately thereafter, neurons were imaged by 10×objective using a fluorescence Olympus IX71 microscope (Olympus America Inc., Center Valley, Pa.) and, for the acquisition of high-quality images, using TCS SP5 multi-photon laser scanning confocal microscope.
Midi-GAGR attenuated neurite atrophy caused by free reactive radicals. It is now shown herein that midi-GAGR protect neurons from the death caused by free radical insults. The extent to which midi-GAGR protects the primary culture of rodent cortical neurons from 4HNE and H2O2 was determined. In addition to the radicals, amyloid β peptide (Aβ42) was also tested. Aβ42 peptide is a major causative factor that causes oxidative stress and neuron death. Mouse cortical neurons (E17, DIV5) were treated with 10 μM 4HNE (24 h), 50 μM H2O2 (24 h), or 2 μM Aβ42 peptide (48 h) after the treatment of the neurons with vehicle (H2O), midi-GAGR (1 μM), dextran (1 μM), alginate (1 μM), LA-GAGR (0.1 μM), or HA-GAGR (0.01 μM) for 24 h. The concentrations of 4HNE, H2O2, and Aβ42 peptide were chosen according to their patho-physiological concentrations. The concentrations of LA-GAGR and HA-GAGR were chosen because, within the same volume, the total numbers of sugar units in the polysaccharides at the concentrations are close to that of 1 μM midi-GAGR. The viability of neurons was assessed using LIVE/DEAD® Viability/Cytotoxicity Assay Kit in which membrane-permeant calcein AM is cleaved by esterase in live cells, thus yielding green fluorescence, and membrane-impermeant ethidium homodimer-1 stains the nucleic acids of plasma membrane-compromised cells with red fluorescence. The numbers of green (live) and red (dead) neurons in each condition were counted using Metamorph. Although the intensities of green fluorescent signals in neurons treated with either free radicals or Aβ42 peptide were weak, the neurons were included in the counting. About 8-9% of vehicle-treated neurons died during the process of live/dead cell assay (FIGS. 23A-23F, FIGS. 24A-24C).

[5] = system: primary mouse cortical neurons (E17, DIV4); experiment: neurite outgrowth in primary mouse cortical neurons; type: cell-based; conditions: 2 days; midi-GAGR, dextran, alginate 1 μM; LA-GAGR 0.1 μM; HA-GAGR 0.01 μM
Method: as §1, with “Then, neurons were harvested and lysed in 1% Igepal CA-630 (Sigma)-containing PMEE buffer plus protease and phosphatase inhibitor cocktails (Sigma) for protein extraction. Extracted proteins were separated in 4-12% NuPAGE Bis-Tris protein gels (Life Technologies) and transferred to nitrocellulose membrane (GE Healthcare Life Science, Pittsburgh, Pa.) using a semidry blotter (Hoefer, Inc., San Francisco, Calif.).” left out

[6] = system: pCREB in mouse cortical neurons; experiment: nuclear pCREB immunostaining in mouse cortical neurons (Example 4); type: cell-based; conditions: 48 h; midi-GAGR, alginate, dextran 1 μM; LA-GAGR 0.1 μM; HA-GAGR 0.01 μM
Method: (§2) To analyze the effect of polysaccharides on neurite outgrowth, primary mouse cortical neurons were treated with vehicle (H2O) or 1 μM of dextran, alginate, or midi-GAGR, 0.01 μM of HA-GAGR, or 0.1 μM of LA-GAGR for 2 days prior to immunocytochemistry using anti-α-tubulin antibody and secondary Alexa488nm antibody. An etched grid coverslip containing 200 numbered boxes was used to select neurons objectively for image acquisition and analysis. A total of 24 boxes were randomly selected per treatment group. All the neurons having total neurite length longer than 4 times of the diameter of neuron cell body were chosen for image analysis. The total length of the neurites of each neuron was measured using Metamorph and used to calculate average total neurite length. […] The intensity of the staining of nuclear pCREB was measured using Metamorph and used to calculate average intensity. In addition, the phosphorylation of CREB in the cytosols of mouse cortical neurons treated with polysaccharides were detected by immunoblotting. […] The protein bands on blots recognized by anti-pCREB (Santa Cruz Biotechnologies) and anti-CREB antibodies were detected on Amersham Hyperfilm™ ECL films (GE Healthcare Life Science) using SuperSignal® West Pico Chemiluminescent Substrate (Thermo Scientific). […]

[7] = system: pCREB in mouse cortical neurons; experiment: pCREB immunoblotting of cytosols of mouse cortical neurons; type: cell-based; conditions: 48 h, same concentrations
Method: as §2

[8] = system: phosphorylated CREB in mouse embryonic cortical neurons; experiment: nuclear p-CREB immunostaining in embryonic cortical neurons (Example 2); type: cell-based; conditions: 1 μM, 24 h
Method: (§3) Differentiated PC12 cells and mouse embryonic cortical neurons (E17, DIV14) were treated with mock, dextran, alginate, HA-GAGR, or midi-GAGR (1 μM) for 24 h and fixed in 3.7% paraformaldehyde. The fixed cells and neurons were immunostained with antibodies against α-tubulin and phosopho-CREB (p-CREB) along with DAPI (nucleus).

[9] = system: differentiated dopaminergic PC12 cells exposed to 30 μM 6-OHDA; experiment: LIVE/DEAD viability of differentiated PC12 cells exposed to 6-OHDA; type: cell-based; conditions: 1 μM for 6 h, then 30 μM 6-OHDA for 24 h
Method: Differentiated dopaminergic PC12 cells and primary mouse embryonic cortical neurons (E17, DIV14) were treated with mock (H2O) or 1 μM of dextran, alginate, HA-GAGR, or midi-GAGR for 6 h and insulated by oxidative stressors (30 μM 6-OHDA [PC12] and 10 μM amyloid β peptide [cortical neurons]) for 24 h.

[10] = system: phosphorylated CREB in differentiated PC12 cells; experiment: nuclear p-CREB immunostaining in differentiated PC12 cells; type: cell-based; conditions: 1 μM, 24 h
Method: as §3

[11] = pre-treatment 24 h (midi-GAGR, alginate, dextran 1 μM; LA-GAGR 0.1 μM; HA-GAGR 0.01 μM), then 10 μM 4HNE 24 h
[12] = pre-treatment 24 h (same concentrations), then 2 μM Aβ42 peptide 48 h
[13] = pre-treatment 24 h (same concentrations), then 50 μM H2O2 24 h

Question: Which “effect of inhibitor pre-treatment on average intensity of pCREB in midi-GAGR-treated neurons” value (“effect of inhibitor pre-treatment” for short) [1] does the source give for `CN([C@@H](Cc1ccc(OS(=O)(=O)c2cccc3cnccc23)cc1)C(=O)N1CCN(c2ccccc2)CC1)S(=O)(=O)c1cccc2cnccc12` [KN-62] here?
Answer: The value was “decreased slightly but still statistically significantly”.

Question: Which “effect of inhibitor pre-treatment” value [1] does the source give for `CS(=O)(=O)c1cccc(CNc2nc(Nc3ccc4c(c3)CCC(=O)N4)ncc2C(F)(F)F)c1` [PF-573228] here?
Answer: The value was “did not decrease”.

Question: Which “effect of inhibitor pre-treatment” value [1] does the source give for `Cc1c[nH]c(/C=C2\C(=O)Nc3ccccc32)c1CCC(=O)O` [SU5402] here?
Answer: Its value is “significantly decreased”.

Question: What about the “percent of dead cells” value ([2]; SU5402 4 μM alone, no 4HNE) of the same molecule?
Answer: Its value is “did not increase”.

Question: And the “percent of dead cells” value ([2]; SU5402 4 μM pre-treatment 6 h, then 10 μM 4HNE)?
Answer: The value was roughly 80%.

Question: Which “effect of inhibitor pre-treatment” value [1] does the source give for `N#CC(=C(/N)Sc1ccccc1N)/C(C#N)=C(\N)Sc1ccccc1N` [U0126] here?
Answer: The value was “significantly decreased”.

Question: What does the source list for “[D-Glc(β1→4)D-GlcA(β1→4)D-Glc(β1→4)L-Rha(α1→3)]n [LA-GAGR]”?
Answer: antioxidant capacity, ABTS assay [3]: 15.4 μM Trolox; percent of neuron death [4, 11]: 10%; percent of neuron death [4, 12]: ~10%; percent of neuron death [4, 13]: ~13%; fold change in average total neurite length vs vehicle [5]: ~1.6 fold; average intensity of nuclear pCREB vs vehicle [6]: ~2 fold; levels of pCREB by immunoblotting vs control [7]: significantly increased

Question: Which “percent of neuron death” value [4, 11] does the source give for alginate here?
Answer: The value was “reduced”.

Question: What about the “percent of neuron death” value [4, 12] of the same molecule?
Answer: Its value is “did not decrease”.

Question: And the “percent of neuron death” value [4, 13]?
Answer: The value was “did not reduce”.

Question: And the “fold change in average total neurite length vs vehicle” value [5]?
Answer: Its value is “did not enhance neuritogenesis”.

Question: And the “increase in levels of nuclear p-CREB” value [8]?
Answer: The value was “not significantly increased”.

Question: And the 6-OHDA-induced cell death [9]?
Answer: The 6-OHDA-induced cell death was “did not”.

Question: And the “increase in levels of nuclear p-CREB” value [10]?
Answer: The value was “not significantly increased”.
